≈ marks a conversion by molar mass, not a printed value. Read-outs that look alike come from different tables or passages of the source. Starred links: 1 amine or outer side, 2 acyl side, 3 side chain; linkers in the order of their positions; H or OH if unused. Positions of bridges follow the written chain, without caps; N, C: chain ends. Residues, ends and D or L forms follow the SMILES beside them. *: point of attachment. C20 diacid = O=C(O)CCCCCCCCCCCCCCCCCCC(=O)*; γGlu = O=C(O)[C@H](CCC(=O)[*:2])N[*:1]
Assays:
[1] = Assay (IV) determination of solubility; format: physicochemical
Outline: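 Solubility was profiled across pH 3.0–8.0 after 18 hours at room temperature: a ~500 nmol/ml aqueous polypeptide solution was diluted 1:1 into 100 mM glycylglycine or bistrispropane buffers. After centrifugation, HPLC gave the dissolved concentration.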

[2] = Assay (III) ThT fibrillation assay for physical stability; format: physicochemical; settings: ThT fibrillation assay
Outline: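 Freshly prepared formulations, pH-adjusted, with 1 μM ThT; four or eight replicates incubated at 37 °C under 960 rpm orbital shaking. Fluorescence (ex 444/em 485 nm) read every 20 min; […]. Peptide concentration measured by RP-HPLC before and after the run.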

[3] = biological target: T1, human calcitonin receptor (Homo sapiens, UniProt P30988); assay: Assay (II)a functional CRE-luciferase assay, human calcitonin receptor; format: cell-based
T1 construct: expressed in transfected cells; host or cells: BHK570
T1 sequence (P30988 25-474): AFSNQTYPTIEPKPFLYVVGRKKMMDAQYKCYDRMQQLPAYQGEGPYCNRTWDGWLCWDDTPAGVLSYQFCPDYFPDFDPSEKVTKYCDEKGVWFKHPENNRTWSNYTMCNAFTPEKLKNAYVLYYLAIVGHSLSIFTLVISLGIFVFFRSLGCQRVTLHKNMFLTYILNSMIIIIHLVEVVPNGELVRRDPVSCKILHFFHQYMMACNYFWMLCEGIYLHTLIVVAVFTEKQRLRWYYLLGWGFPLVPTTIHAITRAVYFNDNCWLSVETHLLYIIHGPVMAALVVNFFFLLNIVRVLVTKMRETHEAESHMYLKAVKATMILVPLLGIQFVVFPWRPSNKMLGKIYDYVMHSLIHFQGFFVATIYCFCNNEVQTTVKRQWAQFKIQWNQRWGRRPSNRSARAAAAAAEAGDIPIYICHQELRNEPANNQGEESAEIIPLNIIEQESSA

[4] = biological target: T2, human amylin receptor (amylin 3(a) receptor: human calcitonin receptor + RAMP-3) (Homo sapiens, UniProt O60896+P30988); assay: Assay (II)a functional CRE-luciferase assay, human amylin receptor; format: cell-based
T2 construct: expressed in transfected cells; host or cells: BHK570
T2 sequence (P30988 25-474): T1 sequence (P30988 25-474)
T2 sequence (O60896 24-148 partner): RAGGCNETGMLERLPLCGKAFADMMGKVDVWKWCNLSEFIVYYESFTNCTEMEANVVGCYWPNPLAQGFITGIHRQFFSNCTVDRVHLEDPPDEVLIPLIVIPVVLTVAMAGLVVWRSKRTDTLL

[5] = bistrispropane buffer, pH 6, pH 6.0, read-out: Solubility pH 6.0
[6] = bistrispropane buffer, pH 6.5, pH 6.5, read-out: Solubility pH 6.5
[7] = bistrispropane buffer, pH 7, pH 7.0, read-out: Solubility pH 7.0
[8] = bistrispropane buffer, pH 7.5, pH 7.5, read-out: Solubility pH 7.5
[9] = glycylglycine buffer, pH 3, pH 3.0, read-out: Solubility pH 3.0
[10] = glycylglycine buffer, pH 4, pH 4.0, read-out: Solubility pH 4.0
[11] = glycylglycine buffer, pH 5, pH 5.0, read-out: Solubility pH 5.0
[12] = pH 8.0, read-out: Solubility pH 8.0
[13] = Table 11, read-out: CTa receptor human EC50
[14] = bistrispropane buffer, pH 8, pH 8.0, read-out: Solubility pH 8.0
[15] = glycylglycine buffer, pH 4, pH 4.0, 18 hours at room temperature, Table 2, read-out: Solubility pH 4.0
[16] = Table 7, human calcitonin (CTa) receptor
[17] = Table 2, BHK amylin 3(a)-receptor/CRE-luc cells

Structure (SMILES)	solubility at 18 h [1, 5] [µM]	solubility at 18 h [1, 6] [µM]	solubility at 18 h [1, 7] [µM]	solubility at 18 h [1, 8] [µM]	solubility at 18 h [1, 9] [µM]	solubility at 18 h [1, 10] [µM]	solubility at 18 h [1, 11] [µM]	solubility at 18 h [1, 12] [µM]	ThT pH 4.0 lag time (h) [2] [h]	EC50 [3, 13] [nM]	EC50 ([4]; Table 11) [nM]	solubility at 18 h [1, 14] [µM]	solubility at 18 h [1, 15] [µM]	ThT pH 4.0 lag time [2] [h]	EC50 [3, 16] [nM]	EC50 [4, 17] [nM]	solubility at 18 h ([1]; bistrispropane buffer, pH 7, pH 7.0, 18 hours at room temperature, Table 3, read-out: Solubility pH 7.0) [µM]
CC[C@H](C)[C@H](NC(=O)[C@@H]1CCCN1C(=O)CNC(=O)[C@H](Cc1ccccc1)NC(=O)[C@H](CC(N)=O)NC(=O)[C@H](CC(N)=O)NC(=O)[C@H](CO)NC(=O)[C@H](CO)NC(=O)[C@H](Cc1c[nH]cn1)NC(=O)[C@@H](NC(=O)[C@H](CC(C)C)NC(=O)[C@H](Cc1ccccc1)NC(=O)[C@H](CC(N)=O)NC(=O)[C@H](C)NC(=O)[C@H](CC(C)C)NC(=O)[C@H](CCCNC(=N)N)NC(=O)[C@H](CCC(N)=O)NC(=O)[C@@H](NC(=O)[C@H](C)NC(=O)[C@@H]1CSSC[C@H](NC(=O)[C@H](CCCNC(=N)N)NC(=O)CC[C@H](NC(=O)CCCCCCCCCCCCCCCCCCC(=O)O)C(=O)O)C(=O)N[C@@H](CC(N)=O)C(=O)N[C@@H]([C@@H](C)O)C(=O)N[C@@H](C)C(=O)N[C@@H]([C@@H](C)O)C(=O)N1)[C@@H](C)O)C(C)C)C(=O)N[C@@H](CC(C)C)C(=O)N1CCC[C@H]1C(=O)N1CCC[C@H]1C(=O)N[C@H](C(=O)N[C@@H](CC(N)=O)C(=O)N[C@H](C(=O)NCC(=O)N[C@@H](CO)C(=O)N[C@@H](Cc1c[nH]cn1)C(=O)N[C@H](C(=O)N[C@@H](Cc1ccc(O)cc1)C(N)=O)[C@@H](C)O)C(C)C)[C@@H](C)O [Example 98] ({C20 diacid-γGlu}-RCNTATCATQRLANFLVHSSNNFGPILPPTNVGSHTY-NH2; disulfide 2-7 (inferred); C-terminus assumed)	85 (≈ 379 µg/mL)	1 (≈ 4.45 µg/mL)	1 (≈ 4.45 µg/mL)	1 (≈ 4.45 µg/mL)	> 200	> 200	> 200	1 (≈ 4.45 µg/mL)	2.6	0.193	0.0745	–	–	–	–	–	–
CC[C@H](C)[C@H](NC(=O)[C@@H]1CCCN1C(=O)CNC(=O)[C@H](Cc1ccccc1)NC(=O)[C@H](CC(N)=O)NC(=O)[C@H](CC(N)=O)NC(=O)[C@H](CO)NC(=O)[C@H](CO)NC(=O)[C@H](Cc1c[nH]cn1)NC(=O)[C@@H](NC(=O)[C@H](CC(C)C)NC(=O)[C@H](Cc1ccccc1)NC(=O)[C@H](CC(N)=O)NC(=O)[C@H](C)NC(=O)[C@H](CC(C)C)NC(=O)[C@H](CCCNC(=N)N)NC(=O)[C@H](CCC(N)=O)NC(=O)[C@@H](NC(=O)[C@H](C)NC(=O)[C@@H]1CSSC[C@H](NC(=O)[C@H](CCCNC(=N)N)NC(=O)CNC(=O)CC[C@H](NC(=O)CCCCCCCCCCCCCCCCCCC(=O)O)C(=O)O)C(=O)N[C@@H](CC(N)=O)C(=O)N[C@@H]([C@@H](C)O)C(=O)N[C@@H](C)C(=O)N[C@@H]([C@@H](C)O)C(=O)N1)[C@@H](C)O)C(C)C)C(=O)N[C@@H](CC(C)C)C(=O)N1CCC[C@H]1C(=O)N1CCC[C@H]1C(=O)N[C@H](C(=O)N[C@@H](CC(N)=O)C(=O)N[C@H](C(=O)NCC(=O)N[C@@H](CO)C(=O)N[C@@H](Cc1c[nH]cn1)C(=O)N[C@H](C(=O)N[C@@H](Cc1ccc(O)cc1)C(N)=O)[C@@H](C)O)C(C)C)[C@@H](C)O [Example 99, N-alpha-[(S)-4-Carboxy-4-(19-carboxynonadecanoylamino)butyryl]-Gly-[Arg1,His35]-pramlintide] ({C20 diacid-γGlu}-GRCNTATCATQRLANFLVHSSNNFGPILPPTNVGSHTY-NH2; disulfide 3-8 (inferred); C-terminus assumed)	2 (≈ 9.02 µg/mL)	1 (≈ 4.51 µg/mL)	1 (≈ 4.51 µg/mL)	1 (≈ 4.51 µg/mL)	> 200	> 200	> 200	1 (≈ 4.51 µg/mL)	1.7	0.0875	0.045	–	–	–	–	–	–
CC[C@H](C)[C@H](NC(=O)[C@@H]1CCCN1C(=O)CNC(=O)[C@H](Cc1ccccc1)NC(=O)[C@H](CC(N)=O)NC(=O)[C@H](CC(N)=O)NC(=O)[C@H](CO)NC(=O)[C@H](CO)NC(=O)[C@H](Cc1c[nH]cn1)NC(=O)[C@H](Cc1c[nH]cn1)NC(=O)[C@H](CC(C)C)NC(=O)[C@H](Cc1ccccc1)NC(=O)[C@H](CCC(=O)O)NC(=O)[C@H](C)NC(=O)[C@H](CC(C)C)NC(=O)[C@H](CCCNC(=N)N)NC(=O)[C@H](CCC(N)=O)NC(=O)[C@@H](NC(=O)[C@H](C)NC(=O)[C@@H]1CSSC[C@H](NC(=O)[C@H](CCCNC(=N)N)NC(=O)CNC(=O)CC[C@H](NC(=O)CCCCCCCCCCCCCCCCCCC(=O)O)C(=O)O)C(=O)N[C@@H](CC(N)=O)C(=O)N[C@@H]([C@@H](C)O)C(=O)N[C@@H](C)C(=O)N[C@@H]([C@@H](C)O)C(=O)N1)[C@@H](C)O)C(=O)N[C@@H](CC(C)C)C(=O)N1CCC[C@H]1C(=O)N1CCC[C@H]1C(=O)N[C@H](C(=O)N[C@@H](CC(N)=O)C(=O)N[C@H](C(=O)NCC(=O)N[C@@H](CO)C(=O)N[C@@H](Cc1c[nH]cn1)C(=O)N[C@H](C(=O)N[C@@H](Cc1ccc(O)cc1)C(N)=O)[C@@H](C)O)C(C)C)[C@@H](C)O [Example 100, N-alpha-[(S)-4-Carboxy-4-(19-carboxynonadecanoylamino)butyryl]-Gly-[Arg1,Glu14,His17,His35]-pramlintide] ({C20 diacid-γGlu}-GRCNTATCATQRLAEFLHHSSNNFGPILPPTNVGSHTY-NH2; disulfide 3-8 (inferred))	> 200	28 (≈ 128 µg/mL)	9 (≈ 41.1 µg/mL)	30 (≈ 137 µg/mL)	> 200	> 200	> 200	–	26	–	–	95 (≈ 434 µg/mL)	> 200	26	0.0895	0.0675	–
CC[C@H](C)[C@H](NC(=O)[C@@H]1CCCN1C(=O)CNC(=O)[C@H](Cc1ccccc1)NC(=O)[C@H](CC(N)=O)NC(=O)[C@H](CC(N)=O)NC(=O)[C@H](CO)NC(=O)[C@H](CO)NC(=O)[C@H](Cc1c[nH]cn1)NC(=O)[C@@H](NC(=O)[C@H](CC(C)C)NC(=O)[C@H](Cc1ccccc1)NC(=O)[C@H](CCC(=O)O)NC(=O)[C@H](C)NC(=O)[C@H](CC(C)C)NC(=O)[C@H](CCCNC(=N)N)NC(=O)[C@H](CCC(N)=O)NC(=O)[C@@H](NC(=O)[C@H](C)NC(=O)[C@@H]1CSSC[C@H](NC(=O)[C@H](CCCNC(=N)N)NC(=O)CNC(=O)CC[C@H](NC(=O)CCCCCCCCCCCCCCCCCCC(=O)O)C(=O)O)C(=O)N[C@@H](CC(N)=O)C(=O)N[C@@H]([C@@H](C)O)C(=O)N[C@@H](C)C(=O)N[C@@H]([C@@H](C)O)C(=O)N1)[C@@H](C)O)C(C)C)C(=O)N[C@@H](CC(C)C)C(=O)N1CCC[C@H]1C(=O)N1CCC[C@H]1C(=O)N[C@H](C(=O)N[C@@H](CC(N)=O)C(=O)N[C@H](C(=O)NCC(=O)N[C@@H](CO)C(=O)N[C@@H](CC(N)=O)C(=O)N[C@H](C(=O)N1CCC[C@H]1C(N)=O)[C@@H](C)O)C(C)C)[C@@H](C)O [Example 102, N-alpha-[(S)-4-Carboxy-4-(19-carboxynonadecanoylamino)butyryl]-Gly-[Arg1,Glu14,Pro37]-pramlintide] ({C20 diacid-γGlu}-GRCNTATCATQRLAEFLVHSSNNFGPILPPTNVGSNTP-NH2; disulfide 3-8 (inferred); C-terminus assumed)	> 200	198 (≈ 879 µg/mL)	> 200	> 200	> 200	> 200	> 200	–	3.1	–	–	> 200	> 200	–	0.0505	0.0495	> 200
